# Test results as given in US12692247B2, “Phenyl- and pyridopyrazole derivatives as inhibitors of DDR1” (Redx Pharma Limited, priority 2021, dated 2026).
# Columns and labels:
# Recombinant human DDR2 = molecular target: T1, Recombinant human DDR2 (Homo sapiens, UniProt Q16832); assay: LanthaScreen Eu Kinase Binding Assay, DDR2; details: recombinant human DDR2 (1.75 nM; aa427-855, GST tag), Kinase Tracer 178 10 nM, time-resolved fluorescence, at least two independent replicates; read-out: DDR2 pIC50 (converted)
# T1 construct: DDR2 (1.75 nM; aa427-855 containing a GST tag)
# T1 sequence (Q16832 427-855): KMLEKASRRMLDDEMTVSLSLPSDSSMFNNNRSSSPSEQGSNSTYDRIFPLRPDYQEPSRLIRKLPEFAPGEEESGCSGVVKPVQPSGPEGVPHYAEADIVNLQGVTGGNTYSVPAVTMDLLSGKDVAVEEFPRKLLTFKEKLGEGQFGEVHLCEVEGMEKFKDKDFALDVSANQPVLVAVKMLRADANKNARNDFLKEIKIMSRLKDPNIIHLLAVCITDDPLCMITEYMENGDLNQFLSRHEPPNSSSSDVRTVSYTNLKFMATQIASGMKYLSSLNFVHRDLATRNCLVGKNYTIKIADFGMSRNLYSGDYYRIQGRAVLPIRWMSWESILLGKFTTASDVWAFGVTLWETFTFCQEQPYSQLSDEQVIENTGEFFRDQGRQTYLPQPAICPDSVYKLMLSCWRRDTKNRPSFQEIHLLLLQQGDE
# Protocol: (§1) DDR1 and DDR2 Biochemical Assay Method
# (§2) The capacity of compounds to bind to DDR1 and DDR2 was quantified using a LanthaScreen Eu Kinase Binding Assay. Recombinant human DDR1 (2.5 nM; aa440-876 containing a GST tag) and DDR2 (1.75 nM; aa427-855 containing a GST tag) were diluted in assay buffer (50 mM HEPES pH7.3, 10 mM MgCl2, 1 mM EGTA and 0.01% Tween) with various concentrations of compound in a 384-well plate and a volume of 5 uL. After a 30-minute incubation at room temperature, 2.5 uL of Eu-anti GST antibody (diluted to 1 nM in assay buffer) plus Kinase Tracer 178 (diluted in assay buffer to 5 nM for DDR1 and 10 nM for DDR2) were added to the plate. Following 60-minute incubation at room temperature, time-resolved fluorescence was measured on a BMG Labtech PHERAstar plate reader. DMSO (1%) and reference compound (1 μM) were used to generate the Max and Min assay signals, respectively. Data was analysed using a four-parameter logistic model to calculate IC50 values, with at least two independent replicates were performed for each compound.
# Recombinant human DDR1 = molecular target: T2, Recombinant human DDR1 (Homo sapiens, UniProt Q08345); assay: LanthaScreen Eu Kinase Binding Assay, DDR1; details: recombinant human DDR1 (2.5 nM; aa440-876, GST tag), Kinase Tracer 178 5 nM, time-resolved fluorescence, at least two independent replicates; read-out: DDR1 pIC50 (converted)
# T2 construct: Recombinant human DDR1 (2.5 nM; aa440-876 containing a GST tag)
# T2 sequence (Q08345 440-876 isoform Q08345-2): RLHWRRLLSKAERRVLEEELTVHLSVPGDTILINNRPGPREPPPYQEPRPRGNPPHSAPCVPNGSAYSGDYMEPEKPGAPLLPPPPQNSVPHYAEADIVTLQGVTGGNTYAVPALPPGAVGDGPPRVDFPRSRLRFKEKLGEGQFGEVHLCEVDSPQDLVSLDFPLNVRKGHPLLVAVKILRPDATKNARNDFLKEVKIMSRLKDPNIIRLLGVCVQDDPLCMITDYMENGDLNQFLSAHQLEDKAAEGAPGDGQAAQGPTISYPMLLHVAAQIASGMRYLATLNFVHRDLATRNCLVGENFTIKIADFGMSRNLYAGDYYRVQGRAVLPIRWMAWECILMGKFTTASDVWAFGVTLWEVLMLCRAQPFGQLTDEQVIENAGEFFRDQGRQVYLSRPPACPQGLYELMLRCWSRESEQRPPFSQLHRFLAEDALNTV
# Protocol: as §1, §2
SMILES,IC50 (Recombinant human DDR2),IC50 (Recombinant human DDR1)
"Cn1ncc2cc(Nc3cccc4ccn(CC(=O)NC5(C(F)(F)F)CC5)c(=O)c34)ccc21 [Example 21, 2-[8-[(1-methylindazol-5-yl)amino]-1-oxo-2-isoquinolyl]-N-[1-(trifluoromethyl)cyclopropyl]acetamide]",100 to 1000 nM,10 to 100 nM
"Cn1ncc2cc(Nc3cccc4ccn(CC(=O)Nc5cnco5)c(=O)c34)ccc21 [Example 95, 2-{8-[(1-methyl-1H-indazol-5-yl)amino]-1-oxo-1,2-dihydroisoquinolin-2-yl}-N-(1,3-oxazol-5-yl)acetamide]",100 to 1000 nM,10 to 100 nM
"Cn1ncc2cc(Nc3cccc4ccn(CC(=O)N5CCOC(C(F)(F)F)C5)c(=O)c34)ccc21 (centres unmarked) [Example 43, 8-[(1-methylindazol-5-yl)aminio]-2-[2-oxo-2-[2-(trifluoromethyl)morpholin-4-yl]ethyl]isoquinolin-1-one]",≥ 1000 nM,10 to 100 nM
"Cn1ncc2cc(Nc3cccc4ccn(CC(=O)NCCC(F)(F)F)c(=O)c34)ccc21 [Example 44, 2-[8-[(1-methylindazol-5-yl)amino]-1-oxo-2-isoquinolyl]-N-(3,3,3-trifluoropropyl)acetamide]",≥ 1000 nM,100 to 1000 nM
"Cn1ncc2cc(Nc3cccc4ccn(CC(=O)NCC(F)(F)F)c(=O)c34)cc(C#N)c21 [Example 119, 2-(8-((7-cyano-1-methyl-1H-indazol-5-yl)amino)-1-oxoisoquinolin-2(1H)-yl)-N-(2,2,2-trifluoroethyl)acetamide]",≥ 1000 nM,< 10 nM
CN1CCN(Cc2ccc(NC(=O)Cn3ccc4cccc(Nc5ccc6c(cnn6C)c5)c4c3=O)cc2C(F)(F)F)CC1 [Example 76],10 to 100 nM,10 to 100 nM
"Cn1cnc(NC(=O)Cn2ccc3cccc(Nc4ccc5c(cnn5C)c4)c3c2=O)c1 [Example 81, N-(1-methylimidazol-4-yl)-2-[8-[(1-methylindazol-5-yl)amino]-1-oxo-2-isoquinolyl]acetamide]",≥ 1000 nM,10 to 100 nM
"Cn1ncc2cc(Nc3cccc4ccn(CC(=O)Nc5cccnc5)c(=O)c34)ccc21 [Example 24, 2-[8-[(1-methylindazol-5-yl)amino]-1-oxo-2-isoquinolyl]-N-(3-pyridyl)acetamide]",≥ 1000 nM,100 to 1000 nM
"CC(NC(=O)Cn1ccc2cccc(Nc3ccc4c(cnn4C)c3)c2c1=O)C(F)(F)F (centres unmarked) [Example 12, 2-[8-[(1-methylindazol-5-y)amino]-1-oxo-2-isoquinolyl]-N-(2,2,2-trifluoro-1-methyl-ethyl)acetamide]",10 to 100 nM,10 to 100 nM
"Cn1ncc2cc(Nc3cccc4ccn(CC(=O)N[C@@H](C5CC5)C(F)(F)F)c(=O)c34)ccc21 [Example 57, N-[(1S)-1-cyclopropyl-2,2,2-trifluoro-ethyl]-2-[8-[(1-methylindazol-5-yl)amino]-1-oxo-2-isoquinolyl]acetamide]",10 to 100 nM,< 10 nM
"CC(=O)C1CCN(C(=O)Cn2ccc3cccc(Nc4ccc5c(cnn5C)c4)c3c2=O)CC1 [Example 80, 2-[2-(4-acetyl-1-piperidyl)-2-oxo-ethyl]-8-[(1-methylindazol-5-yl)amino]isoquinolin-1-one]",≥ 1000 nM,100 to 1000 nM
"Cn1ncc2cc(Nc3cccc4ccn(CC(=O)Nc5cnoc5)c(=O)c34)ccc21 [Example 37, N-isoxazol-4-yl-2-[8-[(1-methylindazol-5-yl)amino]-1-oxo-2-isoquinolyl]acetamide]",10 to 100 nM,< 10 nM
"CC(=O)c1cccc(NC(=O)Cn2ccc3cccc(Nc4ccc5c(cnn5C)c4)c3c2=O)c1 [Example 32, N-(3-acetylphenyl)-2-[8-[(1-methylindazol-5-yl)amino]-1-oxo-2-isoquinolyl]acetamide]",10 to 100 nM,< 10 nM
"Cn1ncc2cc(Nc3cccc4ccn(CC(=O)Nc5ccccc5)c(=O)c34)ccc21 [Example 39, 2-[8-[(1-methylindazol-5-yl)amino]-1-oxo-2-isoquinolyl]-N-phenyl-acetamide]",≥ 1000 nM,10 to 100 nM
"Cc1noc(C)c1NC(=O)Cn1ccc2cccc(Nc3ccc4c(cnn4C)c3)c2c1=O [Example 69, N-(3,5-dimethylisoxazol-4-yl)-2-[8-[(1-methylindazol-5-yl)amino]-1-oxo-2-isoquinolyl]acetamide]",100 to 1000 nM,100 to 1000 nM
"Cn1ncc2cc(Nc3cccc4ccn(CC(=O)NC(C5CC5)C(F)(F)F)c(=O)c34)ccc21 (centres unmarked) [Example 33, N-(1-cyclopropyl-2,2,2-trifluoro-ethly)-2-[8-[(1-methylindazol-5-yl)amino]-1-oxo-2-isoquinolyl]acetamide]",100 to 1000 nM,10 to 100 nM
Cn1ncc2cc(Nc3cccc4ccn(CC(=O)Nc5cnoc5)c(=O)c34)cnc21 [Example 101],100 to 1000 nM,10 to 100 nM
"Cn1ncc2cc(Nc3cccc4ccn(CC(=O)NCC(F)(F)F)c(=O)c34)ccc21 [Example 3, 2-[8-[(1-methylindazol-5-yl)amino]-1-oxo-2-isoquinolyl]-N-(2,2,2-trifluoroethyl)acetamide]",100 to 1000 nM,10 to 100 nM
"Cn1ncc2cc(Nc3cccc4ccn(CC(=O)N5CCCC5)c(=O)c34)ccc21 [Example 94, 8-[(1-methyl-1H-indazol-5-yl)amino]-2-[2-oxo-2-(pyrrolidin-1-yl)ethyl]-1,2-dihydroisoquinolin-1-one]",≥ 1000 nM,100 to 1000 nM
"Cn1ncc2cc(Nc3cccc4ccn(CC(=O)Nc5cncnc5)c(=O)c34)ccc21 [Example 25, 2-[8-[(1-methylindazol-5-yl)amino]-1-oxo-2-isoquinolyl]-N-pyrimidin-5-yl-acetamide]",≥ 1000 nM,100 to 1000 nM
"CC[C@H](NC(=O)Cn1ccc2cccc(Nc3ccc4c(cnn4C)c3)c2c1=O)C(F)(F)F [Example 45, 2-[8-[(1-methylindazol-5-yl)amino]-1-oxo-2-isoquinolyl]-N-[(1S)-1-(trifluoromethyl)propyl]acetamide]",10 to 100 nM,10 to 100 nM
"Cn1ncc2cc(Nc3cccc4ccn(CC(=O)Nc5cccc(C(C)(C)O)c5)c(=O)c34)ccc21 [Example 38, N-[3-(1-hydroxy-1-methyl-ethyl)phenyl]-2-[8-[(1-methylindazol-5-yl)amino]-1-oxo-2-isoquinolyl]acetamide]",10 to 100 nM,< 10 nM
"Cn1ncc2cc(Nc3cccc4ccn(CC(=O)Nc5ccon5)c(=O)c34)ccc21 [Example 74, N-isoxazol-3-yl-2-[8-[(1-methylindazol-5-yl)amino]-1-oxo-2-isoquinolyl]acetamide]",100 to 1000 nM,10 to 100 nM
"CN(c1ccc2c(cnn2C)c1)c1cccc2ccn(CC(=O)Nc3cnoc3)c(=O)c12 [Example 140, N-isoxazol-4-yl-2-[8-[methyl-(1-methylindazol-5-yl)amino]-1-oxo-2-isoquinolyl]acetamide]",10 to 100 nM,10 to 100 nM
"Cn1ccnc1NC(=O)Cn1ccc2cccc(Nc3ccc4c(cnn4C)c3)c2c1=O [Example 77, N-(1-methylimidazol-2-yl)-2-[8-[(1-methylindazol-5-yl)amino]-1-oxo-2-isoquinolyl]acetamide]",≥ 1000 nM,≥ 1000 nM
"Cn1ncc2cc(Nc3cccc4ccn(CC(=O)N5CCC[C@H]5C(F)(F)F)c(=O)c34)cnc21 [Example 78, 8-[(1-methylpyrazolo[3,4-b]pyridin-5-yl)amino]-2-[2-oxo-2-[(2S)-2-(trifluoromethyl)pyrrolidin-1-yl]ethyl]isoquinolin-1-one]",100 to 1000 nM,10 to 100 nM
"Cn1ncc2cc(Nc3cccc4ccn(CC(=O)NC(CO)C(F)(F)F)c(=O)c34)ccc21 (centres unmarked) [Example 50, 2-[8-[(1-methylindazol-5-yl)amino]-1-oxo-2-isoquinolyl]-N-[2,2,2-trifluoro-1-(hydroxymethyl)ethyl)acetamide]",≥ 1000 nM,≥ 1000 nM
Cn1ncc2cc(Nc3cccc4ccn(CC(=O)NCC56CCCN5CCC6)c(=O)c34)ccc21 [Example 138],≥ 1000 nM,≥ 1000 nM
